Data from ChEMBL document CHEMBL3507680, “University of Dundee, Gates Library screen for HepG2 cell viability”.

Assay: Human HepG2 cell viability assay in 384 well format
Assay type: toxicity, cell-based
Design: dose 125 nL, time 70.5 hour; cytotoxicity at 70.5 h: concentration not given beside the values
Conditions: HepG2 cells, read-out: Inhibition

SMILES | cytotoxicity at 70.5 h [%]
N#Cc1cccc(OCC(=O)N(Cc2ccncc2)C2CC2)c1 | -10.3
Cc1csc(C2(NCc3nnc(-c4ccco4)o3)CCCC2)n1 | 0.188
O=C(Cn1c(=O)n(Cc2ccco2)c2ncccc21)Nc1ccccn1 | -4.41
Cc1nc(CN2CCCN(C(=O)C3(C#N)CCCCC3)CC2)cs1 | -16.4
CC[C@H]1CN(S(C)(=O)=O)CC[C@H]1CC(=O)NCCOC | 9.53
CCSc1ncc(CN2C[C@H]3CC[C@@H]2CN(C2CCOCC2)C3)cn1 | -7.51
CCOC(=O)N1CCN(C(=O)c2sc(-c3ccc(F)cc3)nc2C)CC1 | -8.29
CC(CNC(=O)c1cnccn1)Oc1ccc(F)cc1 (stereo not given) | -8.73
CN(C)C(=O)CCCS(=O)(=O)Cc1cc(Cl)c2c(c1)OCCO2 | -4.96
Cc1cc(C2CCCN(Cc3noc(Cc4ccccc4)n3)C2)n[nH]1 (stereo not given) | -1
CCCS(=O)(=O)CCN1CCOC(c2ccsc2)C1 (stereo not given) | -2.47
CN(C)c1nc(NCCCN2CCc3ccccc32)ncc1F | 38.5
CCc1noc(CN2CCCN(Cc3cccs3)CC2)n1 | -11.1
CC(C)(C)OC(=O)NC(C)(C)c1noc(Cn2ccnc2)n1 | -4.72
CCn1ccnc1C1CCCN(C(=O)c2sc(C)nc2C)C1 (stereo not given) | -7.2
COc1ccc(-c2cc(C3(O)CCN(C)CC3)on2)cc1 | -0.517
O=C(Cc1ccc(-n2cnnn2)cc1)Nc1cnn(CC(F)F)c1 | -15.7
Cc1[nH]ncc1CCCNC(=O)Nc1ccc(F)cc1 | 3.38
O=C(NCC(F)(F)F)C1CSCN1S(=O)(=O)c1ccc(F)cc1Cl (stereo not given) | -10.4
CN1CCC2(Cc3ccccc3CN(C(=O)c3ccc(Cl)cc3)C2)C1 (stereo not given) | 35.9
CCn1nc2c(cc1=O)CN(CCOc1ccc(C#N)cc1)CC2 | 17.6
c1coc(-c2nnc(CN3CCCC3Cn3cncn3)o2)c1 (stereo not given) | -1.88
Cc1ccsc1C(=O)N1CCc2ncc(Cn3cccn3)n2CC1 | -6.33
CCCOc1ccc(CN)c(OC(F)F)c1 | -3.13
Cn1cc(CC2CC(=O)N(Cc3ccccc3OC(F)F)C2=O)cn1 (stereo not given) | -0.223
Cc1cc(C)n(C2CCCN(C(=O)CCCNc3ncccn3)C2)n1 (stereo not given) | 27.5
COc1ccc(CC(=O)N2CC(=O)NCC(C)(C)C2)cc1 | 14.8

SMILES | cytotoxicity at 70.5 h [%]
Cc1cccc2c(CCNC(=O)NCC[S+](C)[O-])c[nH]c12 (stereo not given) | 0.892
CCN1CCCC(O)(c2nc(C)c(CCOc3ccccc3F)s2)CC1 (stereo not given) | -8.35
CCCn1ccnc1-c1cccc(NC2CCOC2)c1 (stereo not given) | -1.36
CNS(=O)(=O)c1ccc(CNC(=O)NCC2CCCO2)cc1 (stereo not given) | -20.2
CCn1nc2c(cc1=O)CN(c1ncnc3sccc13)CC2 | -11.4
Nc1nc2c(c3c1C(=O)NC3=O)CCCC2 | -9.66
CCN1CC2(CCC1=O)CCN(C(=O)c1ccc(C)cc1O)CC2 | -14.7
Cc1cnc(CN2CCC(N(C)Cc3nnc(C4CC4)n3C)C2)cn1 (stereo not given) | -11
Cc1cc(C2CCCN2CC(=O)N(CCC#N)c2ccccc2F)on1 (stereo not given) | -12.2
O[C@]1(c2ccccn2)CC[C@@H]2CN(Cc3cccc4ncccc34)C[C@@H]21 | 15.3
CCOC(=O)Cc1cs/c(=N/C(=O)COc2cnc(C)cc2O)[nH]1 | 5.42
CC(C)(C(=O)NCC(=O)N1CCCC1)c1ccccc1F | 3.99
CCc1ccc(CN2CC[C@@H]3NC(=O)CC[C@@H]32)o1 | 27
Cc1noc(C(C)C)c1C(=O)NCC(c1cccc(F)c1)N(C)C (stereo not given) | -21.3
O=C(c1ccc2c(c1)CCCC2)N1CCCC(n2cncn2)C1 (stereo not given) | -4.56
CN(Cc1nc(-c2ccccc2)no1)Cc1cnc(N2CCOCC2)s1 | 1.48
Cn1cccc1C(=O)N1C[C@H]2CN(CCN3CCCC3)C(=O)[C@H]2C1 | -8.62
O=C(CN1CCCC1)N1CCCC(c2cc(=O)n3c(n2)CCCCC3)C1 (stereo not given) | 2.75
CCOC(=O)C1CCCN(Cc2c[nH]nc2-c2cc3ccccc3o2)C1 (stereo not given) | 18.3
CCOCCN1CCc2cncnc2C1 | 27.9
O=C(Nc1cc2c(cc1Br)OCCO2)NC1CCS(=O)(=O)C1 (stereo not given) | 10.1
CC(=O)c1ccc(-c2cnn(CC(=O)Nc3ccnn3C)c2)nc1 | -9.08
O=C1N(c2cccc(Cl)c2)Cc2nc(=O)n(Cc3cccc(F)c3)n21 | 0.196
CC(C)(C)c1cnc(CN2CCCCC2Cn2cccn2)o1 (stereo not given) | 18.8
Cn1cc(-c2ncnc3c2CCN(C(=O)N2CCOCC2)CC3)cn1 | -5.18
Cc1ccc(CN2CCC[C@@H]3CN(C(=O)c4ccco4)C[C@@H]32)o1 | -9.58
Cc1cc(CN2CCC(CNC(=O)c3cnc(C)nc3C)C2)[nH]n1 (stereo not given) | 7.59

SMILES | cytotoxicity at 70.5 h [%]
Cc1cn2c(=O)c(-c3ccnc(N(C)C4CCCCC4)n3)cnc2s1 | -3.7
O=C(c1cc(C2CCCN(Cc3ccccn3)C2)no1)N1CCCC1 (stereo not given) | -1.56
COCCN1CCC(CN(CC2CCCO2)C(=O)CNC(C)=O)CC1 (stereo not given) | -1.99
CCC(CC)(CNC(C)=O)NC(C)c1ccccc1 (stereo not given) | 3
CC1CN(CC(=O)Nc2ccncc2)CCN1c1nccs1 (stereo not given) | -2.52
O=C(c1ccnnc1)N1C[C@H]2CCC[C@@H](OCc3cccnc3)[C@@H]2C1 | -3.26
CC(C)NC(=O)[C@H]1C[C@@H]2[C@@H](C1)OCCN2Cc1nccs1 | -4.27
CCC(C)NC(=O)CS(=O)(=O)Cc1nc(-c2cccs2)no1 (stereo not given) | -8.46
Cc1cccc(CN2CCN(c3ncnc4[nH]ccc34)CC2CCO)n1 (stereo not given) | -3.92
Cc1ccc(CN2C[C@@H](N(C)C)[C@H]3OCCC[C@H]32)o1 | 1.56
Cc1cccc(Cn2cc(Br)c(NS(C)(=O)=O)n2)c1 | -6.39
CC(C)CC(=O)N(C)CC(=O)Nc1ccc(Br)cn1 | 0.489
O=C(Cn1c(=O)n(Cc2ccco2)c2ncccc21)NC1CCCC1 | -7.12
CCCn1cnnc1CNC(=O)C1COc2ccc(OC)cc2C1 (stereo not given) | 20.1
Cc1cc(C(=O)N2CC[C@@]3(C[C@@H](NS(C)(=O)=O)CCO3)C2)no1 | -4.95
Cc1n[nH]c2nc(-c3cc(Br)ccc3O)cc(C(=O)O)c12 | 8.54
CC(NC(=O)CN1C=Nc2ccccc2S1(=O)=O)c1ccccc1 (stereo not given) | -9.29
CCn1c(C)nnc1CN(C)C1CCN(Cc2sc(C)nc2C)C1 (stereo not given) | 3.85
Cc1nc(C)c2c(n1)CCN(Cc1ccco1)CC2 | 2.27
O=C1OCCN1CCS(=O)(=O)c1cccc(Cl)c1 | -5.19
O=C1CC[C@H]2CN(c3ncccc3F)CC[C@H]2N1CCc1ccccc1 | 17.3
C[C@@H]1CN(C2Cc3ccccc3C2)CC[C@@]1(O)C1CCOCC1 | -10.1
CS(=O)(=O)N1C[C@H]2CC[C@@H]1CN(Cc1ccncc1)C2 | -10.9
CN1CCN(Cc2cccnc2)C(=O)C12CCN(Cc1ccco1)CC2 | -8.43
CC(C)c1ccc(CCC(=O)N2CCOCC2c2ncon2)cc1 (stereo not given) | -5.22
Cc1noc(C)c1CN1CC[C@H]2C[C@H](c3ccncn3)O[C@@H]2C1 | -8.76
